# From BindingDB's records for doi:10.1080/14756360400015231 (Quaid-I-Azam University, 2005)
# pIC50: −log10 of the molar value.
# Biological target: Carboxylic ester hydrolase (Equus caballus, UniProt Q9N1N9)
# Assay: Enzyme Inhibition Assay
# Conditions: pH 8; 25 °C
# Procedure: In vitro cholinesterase inhibition assay using electric-eel acetylcholinesterase, horse-serum butyrylcholinesterse. The IC50 values were calculated using the […] enzyme kinetics program (Perrella Scientific Inc., Amherst, USA).
# Sequence of Carboxylic ester hydrolase (Q9N1N9 whole entry): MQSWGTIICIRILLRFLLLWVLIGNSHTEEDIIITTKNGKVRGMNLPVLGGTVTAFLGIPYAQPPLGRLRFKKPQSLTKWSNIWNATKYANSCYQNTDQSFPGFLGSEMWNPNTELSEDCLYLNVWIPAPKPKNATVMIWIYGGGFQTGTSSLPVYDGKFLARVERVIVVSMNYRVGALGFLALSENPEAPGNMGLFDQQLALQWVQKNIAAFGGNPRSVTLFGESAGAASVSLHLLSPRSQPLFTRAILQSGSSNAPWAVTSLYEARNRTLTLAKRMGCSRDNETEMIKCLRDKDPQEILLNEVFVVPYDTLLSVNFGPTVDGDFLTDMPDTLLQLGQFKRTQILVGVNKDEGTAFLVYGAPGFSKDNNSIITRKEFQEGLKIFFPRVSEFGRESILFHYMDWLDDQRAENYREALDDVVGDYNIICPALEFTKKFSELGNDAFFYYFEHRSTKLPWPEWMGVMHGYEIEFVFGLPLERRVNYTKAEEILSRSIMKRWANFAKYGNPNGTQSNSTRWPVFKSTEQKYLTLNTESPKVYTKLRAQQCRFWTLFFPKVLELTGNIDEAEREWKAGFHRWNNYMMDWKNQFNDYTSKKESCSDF
row,Structure (SMILES),pIC50
1,"O=C(/C=C/c1cccc(O)c1)c1ccccc1 [Chalcone, 2]",4.34
2,"COc1ccc(/C=C/C(=O)c2ccccc2)cc1 [Chalcone, 4]",4.41
3,O=C(/C=C/c1ccc(O)cc1)c1ccccc1 [Chalcone 2],4.40
4,"O=C(/C=C/c1ccccc1O)c1ccccc1 [Chalcone, 1]",4.80
5,"COc1ccc(/C=C/C(=O)c2ccccc2)cc1OC [Chalcone, 5]",4.64
6,"O=C(/C=C/c1ccccc1)c1ccccc1 [Chalcone, 13]",3.96
